Experiments:
[1] = tested on: Tebowned (RNA, riboswitch) GGACGAUUGAGGAUAUUUAGACAUAGAGAAGGCAAUGGAGAGAGAGCUUUUUAAAGAAACAACAACAACAAC; test: chemical mapping; settings: mapping pattern changes on FMN
[2] = tested on: V. vulnificus add adenine riboswitch (with expression platform segment) (RNA, riboswitch) GGGAACCGAGUAGGUUCGCUUCAUAUAAUCCUAAUGAUAUGGUUUGGGAGUUUCUACCAAGAGCCUUAAACUCUUGAUUAUGAAGUCUGUCGCUUUAUCCGAAAUUUUAUAAAGAGAAGACUCAUGAAUGGGAUCCGAGUAGGAUCCUGAAAAAAACAACAACAAC; test: 1M7 SHAPE mutate-and-map chemical mapping; settings: 50 mM KCl, 25 mM K3PO4, 10 mM MgCl2; pH 6.5; room temperature; 5 mM adenine; protections in aptamer

binding [1] | binding [2] | SMILES
yes | – | Cc1cc2nc3c(=O)[nH]c(=O)nc-3n(C[C@H](O)[C@H](O)[C@H](O)COP(=O)(O)O)c2cc1C
– | yes | Nc1ncnc2[nH]cnc12
